According to patent publication US7098195B2, “Fluorinated glucosamine analogs useful for modulating post-translational glycosylations on cells” (Health Research, Inc., priority 2001, dated 2006):
Marks after values point to notes of the source that are not given here.

Experiments:
[1] = tested on: P-selectin ligand activity of CLA+ T-lymphocytes; assay: Parallel-plate flow chamber, CLA+ T-cell tethering and rolling on P-selectin chimera; assay type: cell-based, human; conditions: 0.1% for 1 h at 37° C.
Procedure: (§1) To analyze the affects of 4-F-GlcNAc on the function of CLA on human T-cells, we examined the ability of 4-F-GlcNAc-treated (0.05, 0.1, 0.5 mM for 30 hrs) CLA-+ T-cells cultures to engage with immobilized E- and P-selectin chimera in the parallel-plate flow chamber. As described for flow cytometric analyses (Example 13), cells were first pretreated with neuraminidase to remove terminal sialic acid residues required for HECA-452 reactivity and for E- and P-selectin ligand activity of CLA. This approach allowed for the assessment on de novo synthesized CLA molecules.
(§2) Tethering and rolling of human T-cells on recombinant human E- and P-selectin-Ig chimera (provided by Dr. Robert Fuhlbrigge, Harvard Medical School) and human L-selectin-Ig (gift from Dr. Ray Camphausen, Wyeth/Genetics Institute, Inc., Cambridge, Mass.) were analyzed in the parallel-plate flow chamber under physiologic shear stress conditions (3). To prepare E- and P-selectin-Ig chimera spots, protein A (300 μg/15 μl 0.1M NaHCO3) was adsorbed to Ten-twenty-nine™ Petri dishes for 2 h at 37° C. Human serum albumin ([…] PBS) then added and incubated for 2 h at 37° C. to block non-specific binding sites. E-selectin-Ig (50 ng/50 μl PBS) or P-selectin-Ig (50 ng/50 μl PBS) solutions was pipetted directly over the pre-existing protein A spots for 18 h at 4° C. To prepare L-selectin-Ig spots, L-selectin-Ig (300 ng/15 μl PBS) or isotype control human IgG (300 ng/15 μl) were adsorbed directly to plastic (non-protein A-coated) for 18 h at 4° C. and blocked in 100% FBS for 2 h at 4° C.
(§3) CLA^+ T-cells or freshly isolated PBL were treated with neuraminidase and metabolic glycosylation inhibitors or with protease (bromelain) as described above, washed twice in HBSS, suspended at 2×10^6/ml in HBSS/10 mM HEPES/2 mM CaCl2 (H/H/Ca^++) and infused into the chamber over selectin chimeras. Protease treatment was performed to control for residual E-selectin activity not attributable to the expression of CLA on a protein scaffold. Cell tethering was permitted at 0.6 dynes/cm^2 for 1 min, then stepwise increments in shear stress every 15 sec were employed to a final shear stress level of 60 dynes/cm^2. The number of cells rolling/viewing field (at 100× magnification) was quantified at each level of shear stress in triplicates for a minimum of three experiments. […] Negative control experiments were performed in parallel, wherein cell binding was examined in H/H adhesion assay medium containing 5 mM EDTA as well as assaying cell binding to human IgG isotype control.
(§4) Utilizing the parallel-plate flow chamber under physiologic shear stress conditions, E-, P- and L-selectin ligand activities of human CLA^+ T-cells treated were analyzed in an identical manner as cells prepared for Western blotting and autoradiography studies.

[2] = tested on: E-selectin ligand activity of CLA+ T-lymphocytes; assay: Parallel-plate flow chamber, CLA+ T-cell tethering and rolling on E-selectin chimera; assay type: cell-based, human; conditions: 0.1% for 1 h at 37° C.
Procedure: as §1, §2, §3, §4

[3] = tested on: HECA-452 epitopes; assay: Flow cytometric analysis of HECA-452 epitopes on human T-lymphocytes; assay type: cell-based
Procedure: Only positive cells, which were those cells with fluorescence above background autofluorescence and fluorochrome-conjugated secondary Ab staining, were analyzed.
For analysis of CLA expression on T-cells treated with glycoconjugate modifiers, CLA^+ T-cells were first pretreated with neuraminidase (0.1 U/ml at 37° C. for 1 h) to eliminate functional CLA and cleave all HECA-452 reactive epitopes from the cell surface (35–38). Since we wanted to investigate whether these compounds directly affected CLA expression and function, neuraminidase pretreatment followed by incubations with glycosylation modifiers allowed for examination of de novo synthesized CLA/HECA-452 epitopes re-expressed on the cell surface. After neuraminidase digestion, cells were then incubated with tunicamycin (0.02 mM) (an inhibitor of GlcNAc phosphotransferase, the initial step of N-glycosylation), swainsonine (0.23 mM) (an inhibitor of α-mannosidase II and complex-type N-glycosylation), 4-F-GlcNAc (0.05 mM) (putative inhibitor of poly-N-acetyllactosamine biosynthesis), BAG (an inhibitor of O-glycan biosynthesis) (<2 mM) or GlcNAc (5 mM) (negative control, naturally-occurring metabolic counterpart of 4-F-GlcNAc)for 30 h in the presence of human recombinant IL-2. […] Concentrations for BAG were selected based on maximal O-glycosylation inhibitory effects at non-growth inhibitory concentrations as previously reported (39). To determine a suitable concentration of 4-F-GlcNAc for examining glycoconjugate-modifying effects without influencing cell growth or protein synthesis, we performed preliminary growth inhibitory experiments of cells incubated with 4-F-GlcNAc for 2 cell doublings (˜36 h) at 37° C. (cell viability assessed by Trypan-blue exclusion).
Flow cytometric analysis was performed on human leukocytes utilizing both direct and indirect immunofluorescence staining approaches. All cells utilized for these experiments were washed twice with cold PBS/2%FBS and suspended at 10^7/ml PBS/1% FBS. Primary antibodies, anti-CLA (HECA-452), -CD4, -CD8, CD43 (L60) and PSGL-1 (PL-2) along with the appropriate isotype-matched control antibodies were incubated with the cells for 30 min on ice. Following two washes with PBS/2%FBS, cells were resuspended in PBS/1%FBS and fluorochrome-conjugated secondary antibodies (2 μl) and incubated for 30 min on ice.

[4] = tested on: L-selectin ligand activity of human CLA+ T-cells; assay: Parallel-plate flow chamber, CLA+ T-cell rolling on L-selectin chimera; assay type: cell-based; conditions: 0.1% for 1 h at 37° C.
Procedure: as §2, §3, §4

[5] = tested on: E-selectin ligand activity of murine Th1 cells; assay: Flow chamber analysis of E-selectin binding on murine Th1 cells; assay type: cell-based, mouse; conditions: neuraminidase treatment alone (0.1 U/ml for 1 hr at 37° C.)
Description: (§5) CD4+ splenocytes were isolated from C57BL-6 mice by anti-murine CD4 L3T4 magnetic bead technology (Miltenyi Biotec) according to manufacturer's protocol. […] Culturing murine T helper cells in the presence of murine IL-12 and anti-murine IL-4 produces selectin binding Th1 cells by up-regulating FucTVII (69, 70) and core 2 enzyme (43–45, 71, 72), both critical for selectin ligand synthesis (i.e. decoration of PSGL-1 (67, 68)), and prevents the production of non-selectin binding Th2 cells (67–72). Th1 cells were also generated from mice deficient in α1,3 fucosyltransferase, FucTVII, and served as negative controls (33, 38, 40). Cells were harvested and re-plated at 2×10^6cells/ml on non-Ab coated plastic with murine IL-2 (20 ng/ml) in the presence or absence of murine IL-12 (10 ng/ml) and anti-murine IL-4 moAb 11B11 (10 μg/ml) for 48 h. […] Glycosylation inhibitors were added to cultures on day 6.5 for 30 hr, after first treating cells with neuraminidase (0.1 U/ml for 1 hr at 37° C.) to remove all cell surface terminal sialic acid resides and E and P-selectin ligand activity. Since selectin ligands are dependent on terminal sialic acid (α2,3 N-acetylneuraminic acid) for activity, this approach allowed for analysis of de novo synthesized selectin ligands in the presence of 0.05 mM 4-F-GlcNAc, N-glycan inhibitors, 0.23 mM swainsonine and 0.02 mM tunicamycin, and 1 mM GlcNAc (negative control).

[6] = tested on: CD44 on human hematopoietic KG1a cells; assay: Flow cytometric analysis of CD44 on KG1a cells; assay type: cell-based; conditions: KG1a, neuraminidase (1 hr)
Description: (§6) In a similar set of experiments, we analyzed the effects of 4-F-GlcNAc on selectin ligand expression and function on the human hematopoietic cell line KGla. KGla cells express a distinct HECA-452-reactive CD44 glycoform that functions as both an E- and L-selectin ligand (Dimitroff, C. J. et al. (2001) J. Cell Biol., 53: 1277–1286; Dimitroff, C. J. et al. (2000) Proc. Nat. Acad. Sci., 97(25):13841–46; Sackstein, R. and Dimitroff, C. J. (2000) Blood, 96: 2765–74.), otherwise known as HCELL, respectively. This specialized glycoform represents a major E-selectin and the primary L-selectin ligand on normal CD34+ HPCs and on leukemic cells, and, therefore, is also implicated in the BM homing aspects and growth-related activities of HPCs in vivo, respectively (Id.). We first performed flow cytometric analysis of HECA-452 antigen and CD44 on 4-F-GlcNAc-treated KGla cells. […] Only positive cells, which were those cells with fluorescence above background autofluorescence and fluorochrome-conjugated secondary Ab staining, were analyzed.
(§7) Flow cytometric analysis was performed on human leukocytes utilizing both direct and indirect immunofluorescence staining approaches. All cells utilized for these experiments were washed twice with cold PBS/2%FBS and suspended at 10^7/ml PBS/1% FBS. Primary antibodies, anti-CLA (HECA-452), -CD4, -CD8, CD43 (L60) and PSGL-1 (PL-2) along with the appropriate isotype-matched control antibodies were incubated with the cells for 30 min on ice. Following two washes with PBS/2%FBS, cells were resuspended in PBS/1%FBS and fluorochrome-conjugated secondary antibodies (2 μl) and incubated for 30 min on ice. Cells were washed twice with PBS/2%FBS, resuspended in PBS and flow cytometry was performed on a FACScan apparatus equipped with an argon laser tuned at 488 nm (Becton Dickinson).

[7] = tested on: P-selectin ligand activity of murine Th1 cells; assay: Flow chamber analysis of P-selectin binding on murine Th1 cells; assay type: cell-based, mouse; conditions: neuraminidase treatment alone (0.1 U/ml for 1 hr at 37° C.)
Description: as §5

[8] = tested on: HECA-452 epitopes on human hematopoietic KG1a cells; assay: Flow cytometric analysis of HECA-452 epitopes on KG1a cells; assay type: cell-based; conditions: KG1a, neuraminidase (1 hr)
Description: as §6, §7

[9] = tested on: HCELL/CD44 activity on human hematopoietic KG1a cells; assay: Stamper-Woodruff adhesion assay, L-selectin-dependent lymphocyte adherence to KG1a cells; assay type: cell-based; conditions: KG1a, neuraminidase (1 hr)
Description: To study the effects of 4-F-GlcNAc on the function of the L-selectin binding activity of CD44 (HCELL), we employed the shear-based, Stamper-Woodruff adhesion assay to examine the ability of 4-F-GlcNAc-treated KG1a cells to support L-selectin-dependent lymphocyte adherence. This assay is utilized to specifically assess the shear-dependent binding interactions between L-selectin naturally expressed on lymphocytes and HCELL expressed on KG1a cells (Dimitroff, C. J. et al. (2000) Proc. Nat. Acad. Sci., 97(25):13841–46; Sackstein, R. and Dimitroff, C. J. (2000) Blood, 96: 2765–74.). Before treating KG1a cells with 0.05, 0.1 or 0.5 mM 4-F-GlcNAc, we first pretreated KG1a cells with Vibrio cholerae neuraminidase (0.1 U/ml for 1 hr at 37° C.) to cleave all terminal α2,3 sialic acid-bearing residues and eliminate all HCELL activity. Glutaraldehyde-fixed monolayers of KG1a cells that were first treated with Vibrio cholerae neuraminidase (0.1 U/ml for 1 hr at 37° C.) then re-cultured in the presence of 4-F-GlcNAc (0.05–0.5 mM) for 30 hr at 37° C. Metabolic inhibitors swainsonine, an inhibitor of α-mannosidase II, tunicamycin, an inhibitor of N-acetylglucosamine phosphototransferase, were also utilized to compare the relative potencies of known glycosylation inhibitors. Human peripheral blood lymphocytes (5×10^6cells/ml RPMI1640 w/o NaBicarbonate/5%FBS) were overlayed onto KG1a monolayers at 80 rpm for 30 min. at 4° C., and after gently washing in PBS, lymphocytes bound to cell monolayers were fixed in 3% glutaraldehyde. Re-expression of HCELL activity or HECA-452-reactive CD44 on KG1a cells was determined after […] of 4-F-GlcNAc treatment. Bound lymphocytes were quantified at 100× magnification from a minimum of 5 fields from 2 slides, and the mean number of lymphocytes (standard error of the mean) was calculated.

Row | Substance | P-selectin ligand activity [1] | remaining E-selectin ligand activity [2] | HECA-452 expression by flow cytometry ([3]; CLA^low T-cells or PBL after bromelain digestion) | L-selectin ligand activity [4] | HECA-452 Mean Channel Fluorescence ([3]; CLA+ T-cells, neuraminidase (1 hr)) | E-selectin ligand activity of Th1 cells [5] | CD44 % Positive Cell Staining [6] [%] | P-selectin ligand activity of Th1 cells [7] | HECA-452 Mean Channel Fluorescence [8] | % Inhibition (lymphocyte binding) [9] | Mean Lymphocyte Binding [9]
1 | bromelain | completely eliminated | < 25 % of control | relatively unchanged | completely eliminated |  |  |  |  |  |  | 
2 | neuraminidase: Vibrio cholerae neuraminidase, cleaves terminal sialic acid residues |  |  |  |  | 27 | decreased E and P-selectin ligand activity to baseline levels | 100 | decreased E and P-selectin ligand activity to baseline levels | 43 | 98* % | 4.2
